Results: US20130022612A1, “METHODS AND COMPOSITIONS FOR MALARIA PROPHYLAXIS” (priority 2004, published 2013)

Assays:
P. yoelii sporozoites = experiment: Sporozoite infectivity in vivo (liver 18S rRNA by RT and real time PCR); design: species or system Plasmodium yoelii in Swiss/Webster mice
Protocol: Swiss/Webster mice were given three intraperitoneal injections of DMEM with or without E-64 (50 mg/kg/injection) at 16 hours, 2.5 hours, and 1 hour prior to intravenous injection of 15,000 P. yoelii sporozoites. Forty hours later, livers were harvested and total RNA was isolated using Tri-Reagent (Molecular Research Center, Cincinnati, Ohio). Malaria infection was quantified using reverse-transcription (RT) followed by real time PCR as outlined in (Bruna-Romero, et al. (2001)). RTs were performed with […] of total RNA and random hexamers (PE Applied Biosystems, Foster City, Calif.). Real time PCR was performed using primers that recognize P. yoelii-specific sequences within the 18S rRNA (Bruna-Romero, et al. (2001)) and the SYBR Green Core PCR kit (PE Applied Biosystems). Ten-fold dilutions of a plasmid construct containing the P. yoelii 18S gene were used to create a standard curve.
Swiss/Webster mice were given either 5 or 8 mg/kg of allicin (in DMEM without Cys/Met) intravenously (i.v.) at 60 minutes, 30 minutes, or immediately before i.v. injection of 10^4 P. yoelii sporozoites. Forty hours later, livers were harvested, total RNA was isolated, and malaria infection was quantified using reverse transcription (RT) followed by real time PCR using primers that recognize P. yoelii-specific sequences within the 18S rRNA as previously described (Bruna-Romero, O., et al.). Ten-fold dilutions of a plasmid construct containing the P. yoelii 18S rRNA gene were used to create a standard curve. For allicin preincubation experiments, P. yoelii sporozoites were preincubated with or without 50 μM allicin (in DMEM without Cys/Met) for ten minutes at 28° C. and diluted 12-fold with medium before i.v. injection into mice. All in vivo data were analyzed using the Student t-test for unpaired samples.

P. berghei sporozoites [1] = experiment: Sporozoite gliding motility assay, P. berghei; type: cell-based, Plasmodium berghei
Protocol: Glass 8-chambered Lab-tek wells (Nalgene) were coated with 10 μg/ml 3D11 in PBS overnight at 25° C. and then washed three times with PBS. 2×10^4 P. berghei sporozoites were incubated with 50 μM allicin in DMEM without Cys/Met for ten minutes at 28° C., the medium removed and replaced with DMEM/3% BSA containing 50 μM or 4.2 μM allicin before sporozoites were added to the coated Lab-Tek wells. The sporozoites were incubated for one hour at 37° C., the medium was removed, and the wells were fixed with 4% paraformaldehyde, washed, blocked with PBS/1% BSA, and incubated with biotinylated 3D11 followed by Streptavidin-FITC (1:100 dilution; Amersham Pharmacia). All incubations were performed at 37° C. for one hour. Controls included untreated sporozoites and sporozoites added to wells in the presence of 1 μM cytochalasin D. For each group, gliding motility was assessed by determining the percentage of sporozoites associated with trails, and for those sporozoites with trails, counting the number of circles in each trail.

P. berghei sporozoites [2] = type: cell-based, Plasmodium berghei
Protocol: %invasion=total sporozites−extracellular sporozites×100/total sporozites
Invasion assays were performed as previously described (Pinzon-Ortiz, C., et al.) with some modifications. […] Cells were then washed, fixed, and sporozoites were stained with a double staining assay that distinguishes between intracellular and extracellular sporozoites (Renia, L., et al.). […]

[3] = 50 μM allicin ten minutes, then diluted to 4.2 μM

SMILES | protection from malaria infection (liver P. yoelii 18S rRNA) (P. yoelii sporozoites; E-64 50 mg/kg/injection intraperitoneal at 16 hours, 2.5 hours, 1 hour before 15,000 sporozoites i.v.) | average number of circles per gliding sporozoite (P. berghei sporozoites [1]; E-64 treated versus untreated sporozoites) | percentage of sporozoites that exhibited gliding motility (P. berghei sporozoites [1]; P. berghei, preincubated with 10 mM E-64) | effect on sporozoite invasion, target cells pretreated (P. berghei sporozoites [2]; Hepa 1-6 cells pretreated with E-64, untreated sporozoites) | number of extracellular (attached) sporozoites (P. berghei sporozoites [2]; in the presence of E-64) | inhibition of invasion (P. berghei sporozoites [2]; sporozoites preincubated two hours with 10 mM E-64, Hepa 1-6 cells, one hour) [%] | intracellular sporozoites in the presence of inhibitor (P. berghei sporozoites [2]; wild type and RCon sporozoites, Hepa 1-6, 1 hr) | sporozoite infectivity in vivo versus untreated controls (P. yoelii sporozoites; 8 mg/kg allicin i.v. just before injection of sporozoites) | protection in vivo (P. yoelii sporozoites; 8 mg/kg allicin i.v. one hour before sporozoites) | sporozoite infectivity in vivo versus untreated mice (P. yoelii sporozoites; 8 mg/kg allicin i.v. thirty minutes before sporozoites) | reduction in infection (P. yoelii sporozoites; allicin 5 mg/kg i.v. one minute before sporozoites) [fold] | decrease in infection compared to controls (P. yoelii sporozoites; allicin 8 mg/kg i.v. one minute before sporozoites) [fold] | malaria infection in mice injected with pretreated sporozoites (P. yoelii sporozoites; sporozoites preincubated with 50 μM allicin ten minutes, diluted 12-fold) | gliding motility (P. berghei sporozoites [1]; [3]) | percentage gliding and number of circles per trail versus controls (P. berghei sporozoites [1]; [3]) | gliding motility (P. berghei sporozoites [1]; kept in 50 μM allicin for the duration of the assay) | sporozoite invasion of cells (P. berghei sporozoites [2]; 10, 25, and 50 μM allicin pretreatment) | effect on invasion, host cells pretreated (P. berghei sporozoites [2]; Hepa 1-6 cells preincubated with 50 μM allicin one hour, untreated sporozoites)
CC(C)C[C@H](NC(=O)[C@H]1O[C@@H]1C(=O)O)C(=O)NCCCCN=C(N)N (relative stereo) [E-64, L-trans-epoxysuccinyl-leucylamide-[4-guanido]-butane] | completely protected from malaria infection | not different | no effect | no inhibitory effect on sporozoite invasion | always enhanced | 90 | few intracellular wild type and RCon sporozoites | – | – | – | – | – | – | – | – | – | – | –
C=CCS[S+]([O-])CC=C (stereo not drawn) [allicin] | – | – | – | – | – | – | – | significantly decreased infectivity | little protection | decreased infectivity | 10 | 1000 | no evidence of malaria infection | no effect on gliding motility | the same | completely inhibited | inhibited sporozoite invasion of cells in a dose dependent manner | no effect on invasion
